Source: patent US12551449B2, “Tunable degradation in hydrogel microparticles” (LIKARDA, INC., priority 2019, dated 2026)

Columns and labels:
[1] = thiol group(s); cited from earlier work
canine islets [2] = test: Cytotoxicity of calcium (CSS component) on canine islets, propidium iodide staining; format: cell-based
Experimental: The cytotoxicity of calcium, a component in the CSS process, was tested by exposing canine islets to solutions containing either 100 mM or 200 mM calcium chloride, 10 mM HEPES buffer, and 20% PEGDA, MW 3,400 Da (Laysan Bio, Inc.) for 5, 10 or 15 minutes. A group was also exposed to 100 mM calcium chloride without PEGDA to evaluate the effect of calcium alone. Islets were suspended at approximately 5,000 IEQ/mL in the test solutions to emulate the high cell loading density associated with the encapsulation process. After calcium exposure, islets were washed twice with supplemented CMRL 1066 islet media and then incubated at 37° C. and 5% CO2 for 3 hours prior to assessment.
(§1) Dead cells were identified using propidium iodine staining and fluorescence microscopy. Fluorescence micrographs were captured with a Cytation 5 Imaging Multi-Mode Reader (Biotek Instruments, Inc, 531/647 nm ex/em). Cell death was quantified by calculating the ratio of red (dead) pixels to total islet pixels using Adobe Photoshop. Twenty-five individual islets were analyzed per group and were distinguished from non-islet tissues via dithizone staining. Results are reported as the average viable cell fraction and normalized to islet viability of the matched, untreated controls (i.e., islet from the same batch in culture medium).

canine islets [3] = test: Cytotoxicity of UV light and photoinitiator on canine islets; format: cell-based; details: 10 minutes UV ~40 mW/cm^2
Experimental: as §1
For PEGDA and methacrylated hyaluronic acid (MeHA) microparticles, photocrosslinking was utilized. Thus, studies examining the toxicity of ultraviolet light (UV) and the photoinitiator were first conducted. Canine islets were suspended in Dulbecco's phosphate buffered saline (DPBS) containing 0, 0.025 or 0.05% (w/v) of the photoinitiator, IRGACURE® 2959. Approximately 50 IEQ were loaded into wells of a 24-well plate and irradiated with long-wave ultraviolet (UV) light for 3, 5 or 10 minutes. […] Cell death was evaluated via propidium iodide staining and quantified as described in the previous section.

Molecule | pKa [1] | also measured
O=C(CCS)OCCOC(=O)CCS [Glycol di(3mercaptopropionate)] | 9.4-9.5 | –
O=C(CS)OCCOC(=O)CS [Glycol dimercaptoacetate] | 7.9-8.1 | –
SCCOCCS [2-mercaptoethyl ether] | 10.5-10.7 | –
[Ca+2].[Cl-].[Cl-] [calcium, calcium chloride] | – | exposure time tolerated by islets (canine islets [2]; 100 mM calcium in concentrated, viscous PEGDA solution): at least 10 minutes; viability compared to controls (canine islets [2]; 100 mM calcium without PEGDA, 15 minutes): 97.6%; cytotoxicity to islets (canine islets [2]; 200 mM calcium): rapidly cytotoxic; viability compared to matched, untreated controls (canine islets [2]; 100 or 200 mM calcium with PEGDA or 100 mM calcium alone, 5 minutes exposure): above 97.5%
SCCOCCOCCOCCOCCOCCS [Hexaethhylene glycol dithiol] | 10.5-10.7 | –
N[C@H](CS)CCS [(S)-2 Aminobutane 1,4 dithiol] | 8.5 | –
SCCSCCS [2,2'-thiodiethanethiol] | 9.4-9.5 | –
CC(C)(O)C(=O)c1ccc(OCCO)cc1 [IRGACURE® 2959, 2-Hydroxy-4′-(2-hydroxyethoxy)-2-methylpropiophenone] | – | viable cell fraction (canine islets [3]; 0.025% (w/v)): 94.5%; viable cell fraction (canine islets [3]; 0.05% (w/v)): 87.2%
Glyceryl dithioglycolate | 7.9-8.1 | –
